These results are taken from US5561042A, “Diamine platinum naphthalimide complexes as antitumor agents” (Cancer Therapy and Research Center, priority 1995, dated 1996).

One data set concerns B16 murine melanoma. Put plainly: B16 melanoma in vivo, survival of B6D2F1 mice. The conditions noted are these: for T/C: mean survival treated/control.
For data set [1], the system named is Murine B16 melanoma cell line. The data set is described as follows: In vitro growth inhibition (MTT), B16 melanoma. The class given is cell-based. The conditions noted are these: MTT, 3 days. The text has this:
(§1) P388 murine leukemic cell line was obtained from the DCT Tumor Repository (National Cancer Institute, Frederick Cancer Research and Development, Frederick Md. 21702). HT29 Human Colon Carcinoma cell line was obtained from the American Type Culture Collection (12301 Parklawn Drive, Rockville, Md. 20852). B16 Melanoma cell line was obtained from DuPont Merck Pharmaceutical Company (Glenolden, Pa. 19036). MCF-7 Human Breast Carcinoma cell line was a gift from Dr. K. Osborne (Department of Medicine, The University of Texas Health Science Center at San Antonio, San Antonio, Tex. 78284). All cell lines were incubated at 37° C. in a humidified atmosphere of 5% CO2 -95% air. Murine B16 melanoma cell line was grown in RPMI 1640 medium supplemented with 10% heat-inactivated fetal bovine serum, 2 mM L-glutamine, 50 units/ml penicillin, 50 μg/ml streptomycin, 25 μg/ml gentamycin, 0.75% sodium bicarbonate, 10 mM HEPES buffer (pH 7.4), and 0.06 mg/ml AntiPPLO. Murine P388 leukemic and the human HT-29 colon adenocarcinoma cell lines were maintained in RPMI 1640 medium supplemented with 10% heat-inactivated fetal bovine serum. MCF-7M human breast adenocarcinoma was maintained in IMEM medium supplemented with 5% non heat-inactivated fetal bovine serum and 1 nM insulin.
(§2) Exponentially growing cells (1-2×10^3 cells, unless specified otherwise) in 0.1 ml medium were seeded on day 0 in a 96-well microtiter plate. On day 1, 0.1 ml aliquots of medium containing graded concentrations of test compounds were added in duplicate to the cell plates. After incubation at 37° C. in a humidified incubator for 3 days (P388, B16) or 6 days (HT-29, MCF-7M), the plates were centrifuged briefly and 100 μl of the growth medium was removed. Cell cultures were incubated with 50 μl of 3-(4,5-dimethylthiazol-2-yl)-2,5-diphenyl-tetrazolium bromide [MTT, 1 mg/ml in Dulbecco's phosphate buffered saline (PBS)] for 4 hr at 37° C. The resulting purple formazan precipitate was solubilized with 200 μl of 0.04N HCl in isopropyl alcohol. Absorbance was monitored in a BioRad Model 3550 Microplate Reader at a test wavelength of 570 nm and a reference wavelength of 630 nm. The absorbance was transferred to a PC 486 computer. The IC50 values were determined by a computer program (EZ-ED50) that fit all of the data to the following four-parameterlogistic equation:
(§3) Y=((Am -Ao)/(1+(X/IC50)^n))+Ao
(§4) where Am is the absorbance of control cells, Ao is the absorbance of cells in the presence of highest agent concentration, Y is the observed absorbance, X is the agent concentration, IC50 is the concentration of agent that inhibits the cell growth by 50% of control cells (based on the absorbance) and n is the slope of the curve.

Data set [2] concerns HT29 Human Colon Carcinoma cell line. The data set is described as follows: In vitro growth inhibition (MTT), HT29 colon carcinoma. The settings on record: 6 days. The class given is cell-based.
Excerpt: as §1, §2, §3, §4

For the next data set, the target named is Lambda DNA. The data set is described as follows: Ethidium bromide displacement, lambda DNA. The class given is binding. The conditions noted are these: 1 μM DNA, 1.26 μM ethidium bromide, pH 7.0, read-out: FI50, Lambda DNA. As to the method: (§5) A 10× Binding solution was prepared by combining 0.93 ml of an aqueous NaCl solution (5M), 2.0 ml of an aqueous Tris HCl (500 mM) solution, 0.1 ml of an EDTA solution (500 mM) and 46.97 ml of water. The resultant solution was 93 mM in NaCl, 20 mM in Tris HCl, and 1 mM in EDTA. Stock DNA solution were prepared as follows: Poly (dG·dC)-(dG·dC) (ε254=8.4/mM; 27-7910-02), poly(dA·dT)-(dA·dT) (ε262=6.6/mM; 27-7870-02), and lambda DNA (ε260-7.0/mM; 27-4111-01) were purchased from Pharmacia. Solutions were prepared by resuspending either poly (dG·dC)-(dG·dC) or poly(dA·dT)-(dA·dT)in 1 ml of 10× DNA Binding Solution. Lambda DNA is already in solution as purchased.
(§6) Poly (dG·dC)-(dG·dC), poly(dA·dt)-(dA·dt) and lambda DNA concentrations were determined as follows: 980 μl of 10× DNA Binding Solution was pipetted into a 1 ml cuvette. A blank was run on the UV spectrophotometer. 20 μl of the DNA stock of unknown concentration was then added into the cuvette. The sample was then scanned between 210 nm to 500 nm and the absorbance recorded at 254 nm for poly(dG·dC)-(dG·dC), at 262 nm for poly(dA·dT)-(dA·dT) and at 260 nm for lambda DNA. The solution was transferred to a clean tube. This procedure was followed for three different solutions with the absorbance taken as the average of the three. The concentration of poly(dG·dC)-(dG·dC) stock was calculated to be A254 /8.4×1000 (in μM). The concentration of poly(dA·dT)-(dA·dT) stock was calculated to be A262 /6.6×1000 (in μM). The concentration of lambda DNA stock was calculated to be A260 /7.0×1000 (in μM).
(§7) The binding of the bis-naphthalimides to DNA and to synthetic polynucleotide duplexes was determined by an ethidium bromide displacement assay that measures the reduction of fluorescence when ethidium bromide is displaced from DNA (Baguley, 1981). The fluorescence intensity of a 3 ml solution containing 9.3 mM NaCl, 2 mM Tris-HCl (pH 7.0), 100 μM EDTA, 1 μM DNA (in nucleotides) and 1.26 μM ethidium bromide in a quartz cuvette was measured at the excitation (546 nm) and emission (600 nm) wavelengths on a Shimadzu RF5000U spectrofluorometer. Graded concentrations of agent were then added and the fluorescence intensity was measured. The concentration of compound required to reduce the fluorescence intensity by 50% of that of control (FI50) was determined. Therefore, the lower the FI50 the stronger the binding affinity a particular compound has for DNA.
(§8) The ability of bis-naphthalimides of the present invention and the known anti-cancer agents compound 22 and DMP840, (R,R)-2,2'[1,2-ethanediylbis[imino(1-methyl-2,1-ethanediyl)]]-bis[5-nitro- 1H benz[de]isoquinoline-1,3-(2H)dione]dimethanesulfonate, to bind to DNA and to synthetic oligonucleotide duplexes was measured using an ethidium bromide displacement assay. Ethidium bromide, a known DNA intercalator, has no fluorescence in the absence of DNA; however, fluorescence intensity increases when ethidium bromide binds to DNA. The ethidium bromide displacement assay measures the decrease in fluorescence intensity caused by DNA-bound ethidium bromide with DNA interacting agents.

Data set [3] deals with poly (dG.dC) - poly (dG.dC). Put plainly: Ethidium bromide displacement, poly(dG.dC)-poly(dG.dC). The class given is binding. The conditions noted are these: for Ratio (AT/GC): FI50 poly(dA.dT)-poly(dA.dT) / FI50 poly(dG.dC)-poly(dG.dC); for IC50: ethidium bromide displacement, 1 μM DNA, 1.26 μM ethidium bromide, pH 7.0, read-out: FI50, poly (dG.dC) - poly (dG.dC). As to the method: as §5, §6, §7, §8

Data set [4] has as its target poly (dA.dT) - poly (dA.dT). The data set is described as follows: Ethidium bromide displacement, poly(dA.dT)-poly(dA.dT). The class given is binding. The conditions noted are these: 1 μM DNA, 1.26 μM ethidium bromide, pH 7.0, read-out: FI50, poly (dA.dT) - poly (dA.dT). As to the method:
as §5, §6, §7, §8

The subject of data set [5] is MCF-7 Human Breast Carcinoma cell line. Put plainly: In vitro growth inhibition (MTT), MCF-7 breast carcinoma. The conditions noted are these: 6 days. The class given is cell-based.
Excerpt: as §1, §2, §3, §4

Data set [6] has as its system P388 murine leukemic cell line. The data set is described as follows: In vitro growth inhibition (MTT), P388 leukemia. The settings on record: 3 days. The class given is cell-based.
Excerpt: as §1, §2, §3, §4

Where only a bound is given, the exact number is not on record here.

Method for B16 murine melanoma: B6D2F1 mice received i.p. inocula of B16 murine melanoma brei prepared from B16 tumors growing subcutaneously in mice (day 0). On day 1, rumored mice were treated with drugs or vehicle control; the route of drug administration and schedule were selected as appropriate for the study in question. If dosing information for agents was not available, the maximum tolerated dose (MTD) was determined in initial dose finding experiments in non-tumored mice. In a typical experiment, drugs were given at their MTD and 1/2 MTD doses i.p. on a daily×5 schedule.
The mean survival times of all groups were calculated, and results were expressed as mean survival of treated mice/mean survival of control mice (T/C)×100%. A T/C value of 150 means that the mice in the treated group lived 50% longer than those of the control group; this is sometimes referred to as the increase in life space, or ILS value.
Mice that survived for 60 days were considered long term survivors, or cures, in the B16 model. The universally accepted cut-off for activity in this model, which has been used for years by the National Cancer Institute, is T/C=125.
Statistics were performed on the data using primarily the log rank p-value test.

For the compound `O=C1c2cccc3cc([N+](=O)[O-])cc(c23)C(=O)N1CCNCCNCCN1C(=O)c2cccc3cc([N+](=O)[O-])cc(c23)C1=O` [Compound 23, 2,2'[1,2-ethanediylbis[imino(2,1-ethanediyl)]]-bis[5-nitro-1H-benz[de]isoquinoline-1,3-(2H)-dione]], in the data set with B16 murine melanoma (2.5 mg/kg, q.d. × 5, i.p.), the “60-Day Survivors” value was determined as 0, the “Wt. Ch. (%) (Day 7)” value turned out to be 0.95% and the T/C (commonly the ratio of treated to control) was 162%.

As for `O=P1(N(CCCl)CCCl)NCCCO1` (centres unmarked) [Cytoxan], in the data set on B16 murine melanoma (150 mg/kg, q.d. × 5, i.p.), the “60-Day Survivors” value turned out to be 0, the “Wt. Ch. (%) (Day 7)” value is listed as -12.2% and the T/C is listed as 175%. In the data set with B16 murine melanoma (300 mg/kg, q.d. × 1, i.p.), the “60-Day Survivors” value was 0, the “Wt. Ch. (%) (Day 7)” value is reported as -6.6% and the T/C was found to be 197%. The same compound displayed a highest effective dose with B16 murine melanoma (mouse, in vivo) of 300 mg/kg.

`O=C1c2cccc3cc([N+](=O)[O-])cc(c23)C(=O)N1CCNCCS(=O)(=O)CCN1C(=O)c2cccc3cc([N+](=O)[O-])cc(c23)C1=O` [Compound 14]: the IC50 came to 86 nM in data set [1]; 44 nM in data set [2] (Homo sapiens, HT-29, 144 h); 24200 nM on Lambda DNA; 672 nM in data set [3]; 43300 nM in data set [4]; 132 nM in data set [5]. For the same compound, the IC50 in data set [6] (Mus musculus, P388, 72 h) is 27 nM. The “Ratio (AT/GC)” value in data set [3] stood at 64.38.

In the case of `O=C1c2cccc3cc([N+](=O)[O-])cc(c23)C(=O)N1CCNCCSCCN1C(=O)c2cccc3cc([N+](=O)[O-])cc(c23)C1=O` [Compound 10, 5-[2-(3-Nitronaphthalene-1,8-dicarboximido)ethylamino]-1-(3-nitronaphthalene-1,8-dicarboximido)-3-thiopentane], the IC50 in data set [1] (Mus musculus, B16, 72 h) was determined as 33 nM; on Lambda DNA, 7370 nM; in data set [3], 770 nM; in data set [4] it was 17200 nM; in data set [5] (Homo sapiens, MCF7, 144 h) it was 9 nM; in data set [6] (Mus musculus, P388, 72 h) it was 56.5 nM. In addition, the “Ratio (AT/GC)” value in data set [3] worked out at 22.3.

Turning to `O=C1c2cccc3cc([N+](=O)[O-])cc(c23)C(=O)N1CCNCCNCCN1C(=O)c2cccc3cc([N+](=O)[O-])cc(c23)C1=O` [Compound 22, 2,2'[1,2-ethanediylbis[imino(2,1-ethanediyl)]]-bis[5-nitro-1H-benz[de]isoquinoline-1,3-(2H)-dione]dimethanesulfonate], the “Ratio (AT/GC)” value in data set [3] is on record as 16.5. In the data set on B16 murine melanoma (2.5 mg/kg, q.d. × 5, i.p.), the “60-Day Survivors” value is 0, the “Wt. Ch. (%) (Day 7)” value was -0.17% and the T/C was 141%.

For the compound `O=C1c2cccc3cc([N+](=O)[O-])cc(c23)C(=O)N1CCNCC[S+]([O-])CCN1C(=O)c2cccc3cc([N+](=O)[O-])cc(c23)C1=O` (centres unmarked) [Compound 12], the IC50 in data set [1] was 6.3 nM; in data set [2] it was 1.7 nM; at Lambda DNA, 169 nM; in data set [3], 125 nM; in data set [4], 6380 nM; in data set [5] it was 1.6 nM. In data set [6] (Mus musculus, P388, 72 h), this compound gave an IC50 of 9 nM. In addition, in data set [3], the “Ratio (AT/GC)” value is 51.06.

`O=C1c2cccc3cc([N+](=O)[O-])cc(c23)C(=O)N1CCNCC[S+]([O-])CCN1C(=O)c2cccc3cc([N+](=O)[O-])cc(c23)C1=O` (centres unmarked) [Compound 13]: the IC50 is 1.6 nM in data set [1]; 0.2 nM in data set [2]; 180 nM on Lambda DNA; 18 nM in data set [3]; 3850 nM in data set [4]; under 0.1 nM in data set [5]. In data set [6], this compound had an IC50 of under 5 nM. The “Ratio (AT/GC)” value in data set [3] is given as 212.6.

For the compound `O=C1c2cccc3cc([N+](=O)[O-])cc(c23)C(=O)N1CCNCCS(=O)(=O)CCN1C(=O)c2cccc3cc([N+](=O)[O-])cc(c23)C1=O` [Compound 15, 5-[2-(3-Nitronaphthalene-1,8-dicarboximido)ethylamino]-1-(3-nitronaphthalene-1,8-dicarboximido)-3-sulfonylpentane hydromethanesulfonate], the IC50 in data set [1] was 34 nM; in data set [2], 22 nM; at Lambda DNA, 1030 nM; in data set [3], 118 nM; in data set [4] it was 17100 nM; in data set [5], 36 nM. In data set [6], the IC50 is 29.9 nM. Moreover, in data set [3], the “Ratio (AT/GC)” value is listed as 144.4.
